Results taken from patent publication US20260283162A1, “INDOLEACETIC ACID-ENRICHED ALGAE EXTRACT” (FICOSTERRA, S.L., priority 2023, published 2026).
Converted amounts (≈) assume the structure as drawn.

Experiment: Solubility limit of IAA in water
Assay type: physicochemical
Conditions: apparent, from the IAA concentration in the aqueous extract

## O=C(O)Cc1c[nH]c2ccccc12 [IAA, indole-3-acetic acid]
  solubility: ~17 µg/mL (≈ 97 µM)
